The values that follow come from ChEMBL document CHEMBL1137242, “Application of azide-alkyne cycloaddition 'click chemistry' for the synthesis of Grb2 SH2 domain-binding macrocycles” (Bioorg Med Chem Lett, 2006).

The target in this assay is Growth factor receptor-bound protein 2 (Homo sapiens, UniProt P62993). Nature of the assay: Binding affinity to Grb2-SH2 domain.

Starred links: 1 amine or outer side, 2 acyl side, 3 side chain; linkers in the order of their positions; H or OH if unused. Non-standard residues stand in square brackets, D forms with d. Residues, ends and D or L forms follow the SMILES beside them. *: point of attachment. Pmp = N[C@@H](Cc1ccc(CP(=O)(O)O)cc1)C(=O)O; X1 = O=C(Cn1cc(CCCN[*:1])nn1)[*:2]; Ac6c = NC1(C(=O)O)CCCCC1; NHPentyl = CCCCCN* A value given as a limit tells only on which side of the number the result lay.

As a reminder, the Kd is the constant that tells how readily two partners part at equilibrium. A high value points to a looser complex.

Growth factor receptor-bound protein 2, sequence (P62993 whole entry, the tested form may be a part): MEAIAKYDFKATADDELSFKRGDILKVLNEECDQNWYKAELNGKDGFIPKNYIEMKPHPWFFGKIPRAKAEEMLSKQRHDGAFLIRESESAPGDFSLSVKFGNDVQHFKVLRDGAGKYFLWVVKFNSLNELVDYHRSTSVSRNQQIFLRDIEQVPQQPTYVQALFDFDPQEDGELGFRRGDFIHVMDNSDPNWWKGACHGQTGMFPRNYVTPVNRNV

In turn, `NC(=O)C[C@@H]1NC(=O)C2(CCCCC2)NC(=O)[C@@H](Cc2ccc(CP(=O)(O)O)cc2)NC(=O)Cn2cc(nn2)CCCNC(=O)[C@H](CC(N)=O)NC(=O)C2(CCCCC2)NC(=O)[C@@H](Cc2ccc(CP(=O)(O)O)cc2)NC(=O)Cn2cc(nn2)CCCNC1=O` yielded a Kd of more than 1000 nM.
For `NC(=O)C[C@@H]1NC(=O)C2(CCCCC2)NC(=O)[C@H](Cc2ccc(CP(=O)(O)O)cc2)NC(=O)Cn2cc(nn2)CCCNC1=O`, the affinity, expressed as Kd, was 230 nM.
Regarding `NC(=O)C[C@@H]1NC(=O)C2(CCCCC2)NC(=O)[C@@H](Cc2ccc(CP(=O)(O)O)cc2)NC(=O)Cn2cc(nn2)CCCNC1=O`, the Kd was more than 1000 nM.
Molecule `NC(=O)C[C@@H]1NC(=O)C2(CCCCC2)NC(=O)[C@H](Cc2ccc(CP(=O)(O)O)cc2)NC(=O)Cn2cc(nn2)CCCNC(=O)[C@H](CC(N)=O)NC(=O)C2(CCCCC2)NC(=O)[C@H](Cc2ccc(CP(=O)(O)O)cc2)NC(=O)Cn2cc(nn2)CCCNC1=O` gave a Kd of 1.8 nM.
Next, `C#CCCCNC(=O)[C@H](CC(N)=O)NC(=O)C1(NC(=O)[C@H](Cc2ccc(CP(=O)(O)O)cc2)NC(=O)CN=[N+]=[N-])CCCCC1`: more than 1000 nM.
`CCCCCNC(=O)[C@H](CC(N)=O)NC(=O)C1(NC(=O)[C@H](Cc2ccc(CP(=O)(O)O)cc2)NC(=O)Cn2cc(CCCNC(=O)[C@H](CC(N)=O)NC(=O)C3(NC(=O)[C@H](Cc4ccc(CP(=O)(O)O)cc4)NC(C)=O)CCCCC3)nn2)CCCCC1` (Ac-[Pmp][Ac6c]N[X1][Pmp][Ac6c]N-NHPentyl) had a Kd of 1.1 nM. In other words, the single-digit nanomolar range.
